Reference: US8648092B2, “Imidazo[1,2-a]pyridine derivatives: preparation and pharmaceutical applications” (MEI Pharma, priority 2005, dated 2014)

Columns and labels:
[1] = molecular target: HDAC1 enzyme (recombinant GST-HDAC1) (Homo sapiens (Human), UniProt Q13547); assay: In vitro HDAC assay for determination of IC50 values (BIOMOL fluorescent-based HDAC activity assay); assay type: biochemical; settings: Flur de lys substrate, 2 h room temperature, read-out: IC50 (HDAC 1)
Protocol: Biological Testing and Enzyme Assays Recombinant GST-HDAC1 Protein Expression and Purification
Human cDNA library was prepared using cultured SW620 cells. Amplification of human HDAC1 coding region from this cDNA library was cloned separately into the baculovirus expression pDEST20 vector (GATEWAY Cloning Technology, Invitrogen Pte Ltd). The pDEST20-HDAC1 construct was confirmed by DNA sequencing. Recombinant baculovirus was prepared using the Bac-To-Bac method following the manufacturer's instruction (Invitrogen Pte Ltd).
Expression of GST-HDAC1 was done by infecting SF9 cells (Invitrogen Pte Ltd) with pDEST20-HDAC1 baculovirus at MOI=1 for 48 h. Soluble cell lysate was incubated with pre-equilibrated Glutathione Sepharose 4B beads (Amersham) at 4° C. for 2 h. The beads were washed with PBS buffer for 3 times. The GST-HDAC1 protein was eluted by elution buffer containing 50 mM Tris, pH8.0, 150 mM NaCl, 1% Triton X-100 and 10 mM or 20 mM reduced Glutathione. The purified GST-HDAC1 protein was dialyzed with HDAC storage buffer containing 10 mM Tris, pH7.5, 100 mM NaCl and 3 mM MgCl2. 20% Glycerol was added to purified GST-HDAC1 protein before storage at −80° C.
In Vitro HDAC Assay for Determination of IC50 Values
The assay has been carried out in 96 well format and the BIOMOL fluorescent-based HDAC activity assay has been applied. […] Flur de lys Developer was added and the reaction was incubated for 10 min. Briefly, deacetylation of the substrate sensitizes it to the developer, which then generates a fluorophore. The fluorophore is excited with 360 nm light and the emitted light (460 nm) is detected on a fluorometric plate reader (Tecan Ultra Microplate detection system, Tecan Group Ltd.).
The analytical software, Prism 4.0 (GraphPad Software Inc) has been used to generate IC50 from a series of data.

Colo205 cells = assay: Cell-based proliferation assay for determination of GI50 values (CyQUANT); set-up: species or system human; settings: Homo sapiens
Protocol: Cell-Based Proliferation Assay for Determination of GI50 Values
Human cancer cell lines (e.g. Colo205) were obtained from ATCC. Colo205 cells were cultivated in RPMI 1640 containing 2 mM L-Glutamine, 5% FBS, 1.0 mM Na Pyruvate. Colo205 cells were seeded in 96-wells plate at 5000 cells per well. The plates were incubated at 37° C., 5% CO2, for 24 h. Cells were treated with compounds at various concentrations for 96 h. Cell growth was then monitored using CyQUANT® cell proliferation assay (Invitrogen Pte Ltd). Dose response curves were plotted to determine GI50 values for the compounds using XL-fit (ID Business Solution, Emeryville, Calif.). GI50 is defined as the concentration of compound required for 50% inhibition of cell growth.
The cellular or growth inhibition activity results of representative compounds are shown in Table 4 below (unit in the table is micromolar).

HDAC1 enzyme (recombinant GST-HDAC1), sequence (Q13547 whole entry): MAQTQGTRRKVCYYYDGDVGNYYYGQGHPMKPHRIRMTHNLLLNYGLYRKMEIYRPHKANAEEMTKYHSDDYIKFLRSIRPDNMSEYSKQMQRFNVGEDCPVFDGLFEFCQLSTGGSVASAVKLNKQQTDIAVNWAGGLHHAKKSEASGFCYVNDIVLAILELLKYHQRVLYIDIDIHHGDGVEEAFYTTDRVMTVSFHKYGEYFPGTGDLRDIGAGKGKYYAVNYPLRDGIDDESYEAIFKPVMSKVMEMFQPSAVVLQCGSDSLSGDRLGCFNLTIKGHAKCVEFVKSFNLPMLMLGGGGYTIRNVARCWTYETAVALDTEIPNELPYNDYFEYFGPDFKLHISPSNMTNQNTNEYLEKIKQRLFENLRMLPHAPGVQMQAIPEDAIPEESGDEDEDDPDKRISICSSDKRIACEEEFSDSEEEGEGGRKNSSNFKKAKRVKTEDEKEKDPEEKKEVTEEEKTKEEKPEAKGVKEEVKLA

## CCCN(Cc1c(-c2ccccc2)nc2cc(/C=C/C(=O)NO)ccn12)CC1CC1 [Compound 53, 3-{3-[(Cyclopropylmethyl-propyl-amino)-methyl]-2-phenyl-imidazo[1,2a]pyridin-7-yl}-N-hydroxy-acrylamide]
[1]
  IC50: 600 nM
Colo205 cells; COLO 205, 96 h treatment
  GI50: 2900 nM

## CCCN(Cc1c(-c2ccccc2)nc2cc(/C=C/C(=O)NO)ccn12)C(C)CC (stereo not shown) [Compound 54, 3-{3-[(sec-Butyl-propyl-amino)-methyl]-2-phenyl-imidazo[1,2-a]pyridin-7-yl}-N-hydroxy-acrylamide]
[1]
  IC50: 1000 nM
Colo205 cells; COLO 205, 96 h treatment
  GI50: 4700 nM

## CC1CN(Cc2c(-c3ccccc3)nc3cc(/C=C/C(=O)NO)ccn23)CC(C)O1 (stereo not shown) [Compound 55, 3-[3-(2,6-Dimethyl-morpholin-4-ylmethyl)-2-phenyl-imidazo[1,2-a]pyridin-7-yl]-N-hydroxy-acrylamide]
[1]
  IC50: 2400 nM
Colo205 cells; COLO 205, 96 h treatment
  GI50: 9300 nM

## CCN(CCOC)Cc1c(-c2ccccc2)nc2cc(/C=C/C(=O)NO)ccn12 [Compound 56, 3-(3-{[Ethyl-(2-methoxy-ethyl)-amino]-methyl}-2-phenyl-imidazo[1,2-a]pyridin-7-yl)-N-hydroxy-acrylamide]
[1]
  IC50: 1600 nM
Colo205 cells; COLO 205, 96 h treatment
  GI50: 9000 nM

## CCN1CCN(Cc2c(-c3ccccc3)nc3cc(/C=C/C(=O)NO)ccn23)CC1 [Compound 57, 3-[3-(4-Ethyl-piperazin-1-ylmethyl)-2-phenyl-imidazo[1,2-a]pyridin-7-yl]-N-hydroxy-acrylamide]
[1]
  IC50: 4600 nM
Colo205 cells; COLO 205, 96 h treatment
  GI50: 14000 nM

## O=C(C=Cc1ccn2c(CN3CCC(Cc4ccccc4)CC3)c(-c3ccccc3)nc2c1)NO [Compound 58, 3-[3-(4-Benzyl-piperidin-1-ylmethyl)-2-phenyl-imidazo[1,2-a]pyridin-7-yl]-N-hydroxy-acrylamide]
[1]
  IC50: 1500 nM
Colo205 cells; COLO 205, 96 h treatment
  GI50: 2900 nM

## CC(C)(C)CNCc1c(-c2ccccc2)nc2cc(/C=C/C(=O)NO)ccn12 [Compound 59, 3-{3-[(2,2-Dimethyl-propylamino)-methyl]-2-phenyl-imidazo[1,2-a]pyridin-7-yl}-N-hydroxy-acrylamide]
[1]
  IC50: 230 nM
Colo205 cells; COLO 205, 96 h treatment
  GI50: 2100 nM

## O=C(/C=C/c1ccn2c(CNCC3CC3)c(-c3ccccc3)nc2c1)NO [Compound 61, 3-{3-[(Cyclopropylmethyl-amino)-methyl]-2-phenyl-imidazo[1,2-a]pyridin-7-yl}-N-hydroxy-acrylamide]
[1]
  IC50: 80 nM
Colo205 cells; COLO 205, 96 h treatment
  GI50: 560 nM

## O=C(/C=C/c1ccn2c(CNC3CC3)c(-c3ccccc3)nc2c1)NO [Compound 62, 3-(3-Cyclopropylaminomethyl-2-phenyl-imidazo[1,2-a]pyridin-7-yl)-N-hydroxy-acrylamide]
[1]
  IC50: 310 nM
Colo205 cells; COLO 205, 96 h treatment
  GI50: 2500 nM

## CC(C)(C)NCc1c(-c2ccccc2)nc2ccc(/C=C/C(=O)NO)cn12 [Compound 65, 3-[3-(tert-Butylamino-methyl)-2-phenyl-imidazo[1,2-a]pyridin-6-yl]-N-hydroxy-acrylamide]
[1]
  IC50: > 10000 nM
Colo205 cells; COLO 205, 96 h treatment
  GI50: 62000 nM

## CCCCNCc1c(-c2ccccc2)nc2ccc(/C=C/C(=O)NO)cn12 [Compound 66, 3-(3-Butylaminomethyl-2-phenyl-imidazo[1,2-a]pyridin-6-yl)-N-hydroxy-acrylamide]
[1]
  IC50: > 10000 nM
Colo205 cells; COLO 205, 96 h treatment
  GI50: 55000 nM

## CC(C)(C)CNCc1c(C(C)(C)C)nc2cc(/C=C/C(=O)NO)ccn12 [Compound 67, 3-[2-tert-Butyl-3-[(2,2-dimethyl-propylamino)-methyl]-imidazo[1,2-a]pyridin-7-yl]-N-hydroxy-acrylamide]
[1]
  IC50: 190 nM
Colo205 cells; COLO 205, 96 h treatment
  GI50: 1500 nM

## CC(C)(C)NCc1c(C(C)(C)C)nc2cc(/C=C/C(=O)NO)ccn12 [Compound 69, 3-[2-tert-Butyl-3-(tert-butylamino-methyl)-imidazo[1,2-a]pyridin-7-yl]-N-hydroxy-acrylamide]
[1]
  IC50: 130 nM
Colo205 cells; COLO 205, 96 h treatment
  GI50: 740 nM

## CC(C)(C)NCc1c(-c2ccccc2)nc2cc(C(=O)NO)ccn12 [Compound 70, 3-(tert-Butylamino-methyl)-2-phenyl-imidazo[1,2-a]pyridine-7-carboxylic acid hydroxyamide]
[1]
  IC50: > 10000 nM
Colo205 cells; COLO 205, 96 h treatment
  GI50: > 100000 nM

## CCCCN(C)Cc1c(-c2ccccc2)nc2cc(/C=C/C(=O)NO)ccn12 [Compound 71, 3-{3-[(Butyl-methyl-amino)-methyl]-2-phenyl-imidazo[1,2-a]pyridin-7-yl}-N-hydroxy-acrylamide]
[1]
  IC50: 120 nM
Colo205 cells; COLO 205, 96 h treatment
  GI50: 1000 nM

## CCCCNCc1c(CCCC)nc2cc(/C=C/C(=O)NO)ccn12 [Compound 72, 3-(2-Butyl-3-butylaminomethyl-imidazo[1,2-a]pyridin-7-yl)-N-hydroxy-acrylamide]
[1]
  IC50: 20 nM
Colo205 cells; COLO 205, 96 h treatment
  GI50: 180 nM

## CCCCc1nc2cc(/C=C/C(=O)NO)ccn2c1CNC(C)(C)C [Compound 73, 3-[2-Butyl-3-(tert-butylamino-methyl)-imidazo[1,2-a]pyridin-7-yl]-N-hydroxy-acrylamide]
[1]
  IC50: 20 nM
Colo205 cells; COLO 205, 96 h, 96 h treatment
  GI50: 140 nM

## CCCCc1nc2cc(/C=C/C(=O)NO)ccn2c1CN(CCC)CCC [Compound 74, 3-(2-Butyl-3-dipropylaminomethyl-imidazo[1,2-a]pyridin-7-yl)-N-hydroxy-acrylamide]
[1]
  IC50: 200 nM
Colo205 cells; COLO 205, 96 h treatment
  GI50: 610 nM

## CCCCc1nc2cc(/C=C/C(=O)NO)ccn2c1CN(CC)CC [Compound 75, 3-(2-Butyl-3-diethylaminomethyl-imidazo[1,2-a]pyridin-7-yl)-N-hydroxy-acrylamide]
[1]
  IC50: 180 nM
Colo205 cells; COLO 205, 96 h treatment
  GI50: 680 nM

## CCCCc1nc2cc(/C=C/C(=O)NO)ccn2c1CN(C)CCCC [Compound 76, 3-{2-Butyl-3-[(butyl-methyl-amino)-methyl]-imidazo[1,2-a]pyridin-7-yl}-N-hydroxy-acrylamide]
[1]
  IC50: 70 nM
Colo205 cells; COLO 205, 96 h treatment
  GI50: 170 nM

## CCCCc1nc2cc(/C=C/C(=O)NO)ccn2c1CN(CC)CCCC [Compound 77, 3-{2-Butyl-3-[(butyl-ethyl-amino)-methyl]-imidazo[1,2-a]pyridin-7-yl}-N-hydroxy-acrylamide]
[1]
  IC50: 60 nM
Colo205 cells; COLO 205, 96 h treatment
  GI50: 160 nM

## CCCCc1nc2cc(/C=C/C(=O)NO)ccn2c1CN(CCC)CCCC [Compound 78, 3-{2-Butyl-3-[(butyl-propyl-amino)-methyl]-imidazo[1,2-a]pyridin-7-yl}-N-hydroxy-acrylamide]
[1]
  IC50: 90 nM
Colo205 cells; COLO 205, 96 h treatment
  GI50: 580 nM

## CCN(CC)Cc1c(-c2ccccc2)nc2cc(C(=O)NO)ccn12 [Compound 79, 3-Diethylaminomethyl-2-phenyl-imidazo[1,2-a]pyridine-7-carboxylic acid hydroxyamide]
[1]
  IC50: > 10000 nM
Colo205 cells; COLO 205, 96 h treatment
  GI50: > 100000 nM

## CCN(CC)Cc1c(C(C)(C)C)nc2cc(/C=C/C(=O)NO)ccn12 [Compound 80, 3-(2-tert-Butyl-3-diethylaminomethyl-imidazo[1,2-a]pyridin-7-yl)-N-hydroxy-acrylamide]
[1]
  IC50: 1200 nM
Colo205 cells; COLO 205, 96 h, 96 h treatment
  GI50: 4400 nM

## CCCN(CC)Cc1c(C(C)(C)C)nc2cc(/C=C/C(=O)NO)ccn12 [Compound 82, 3-{2-tert-Butyl-3-[(ethyl-propyl-amino)-methyl]-imidazo[1,2-a]pyridin-7-yl}-N hydroxy-acrylamide]
[1]
  IC50: 270 nM
Colo205 cells; COLO 205, 96 h treatment
  GI50: 1800 nM

## CCCCc1nc2cc(/C=C/C(=O)NO)ccn2c1CN(C)C [Compound 83, 3-(2-Butyl-3-dimethylaminomethyl-imidazo[1,2-a]pyridin-7-yl)-N-hydroxy-acrylamide]
[1]
  IC50: 40 nM
Colo205 cells; COLO 205, 96 h, 96 h treatment
  GI50: 230 nM
